Source: patent US10940206B2, “Ophthalmic composition comprising lipoic acid and a mucomimetic polymer” (OPHTALMIS MONACO, priority 2015, dated 2021)

How the values were obtained:
[1] = Osmoprotective activity: cell viability (XTT assay) under hyperosmolar stress; assay type: cell-based, human; conditions: human, 0 h (pre-osmotic stress, after 17 h preincubation)
Description: (§1) A study was carried out to determine the osmoprotective capacity of sodium lipoate (A) during hyperosmolar stress on human conjunctival (WKD) and corneal (HCE) cells. The osmoprotective activity of A, then A with B and C, was evaluated by measuring cell viability in particular. To that end, cells were preincubated for 17 h with the test substance(s). Next, the medium was removed and the cells were subjected to hyperosmolar stress by addition of sodium chloride (100 mM NaCl) to the culture medium (M199 for the WKD cells and KSFM for the HCE cells). Cellgrowth control cells were contacted with isotonic medium. Cell viability was analyzed preosmotic stress (0 h) in order to measure the effect of the molecules remaining in contact with the cells during the 17 h of incubation, then at 4 h, 8 h and 24 h post-induction of osmotic stress. The cell viability measurement was carried out via an XTT assay. Various concentrations of A were tested for the “molecule alone” tests: 0.0005%, 0.001%, 0.005%, 0.01% and 0.05% w/v. For the molecule mixture tests, the following concentrations were tested: for A: 0.001%, 0.005%, and 0.01% w/v; for B: 0.25% w/v; and for C: 0.5% and 1% w/v. To ensure the validity and the significance of the data, the results obtained were analyzed statistically. The results presented below result from the mean of 3 independent repetitions, carried out on different days.

[2] = tested on: human conjunctival (WKD) and corneal (HCE) cells; assay: as above; assay type: cell-based; conditions: Homo sapiens, HCE; for viability at 0.0005 % strength: 0.0005% w/v; for viability at 0.001 % strength: 0.001% w/v; for viability at 0.005 % strength: 0.005% w/v; for viability at 0.01 % strength: 0.01% w/v; for viability at 0.05 % strength: 0.05% w/v
Description: as §1

[3] = 4 h post-induction of osmotic stress (100 mM NaCl)
[4] = 8 h post-induction of osmotic stress (100 mM NaCl)
[5] = 24 h post-induction of osmotic stress (100 mM NaCl)

O=C(O)CCCCC1CCSS1 (centres unmarked) [sodium lipoate, 5-(1,2dithiolan-3-yl)pentanoic acid]
viability at 17 h, 0.0005 % w/v ([1]; 0.0005% w/v): 99.9%
viability at 17 h, 0.001 % w/v ([1]; 0.001% w/v): 98.5%
viability at 17 h, 0.005 % w/v ([1]; 0.005% w/v): 103%
viability at 17 h, 0.01 % w/v ([1]; 0.01% w/v): 98.1%
viability at 17 h, 0.05 % w/v ([1]; 0.05% w/v): 56.3%
viability at 0.0005 % strength [2, 3]: 62.7%
viability at 0.0005 % strength [2, 4]: 38.5%
viability at 0.0005 % strength [2, 5]: 18.8%
viability at 0.001 % strength [2, 3]: 69.6%
viability at 0.001 % strength [2, 4]: 42.4%
viability at 0.001 % strength [2, 5]: 18.5%
viability at 0.005 % strength [2, 3]: 109%
viability at 0.005 % strength [2, 4]: 76.1%
viability at 0.005 % strength [2, 5]: 12.6%
viability at 0.01 % strength [2, 3]: 120%
viability at 0.01 % strength [2, 4]: 82.9%
viability at 0.01 % strength [2, 5]: 8.9%
viability at 0.05 % strength [2, 3]: 46%
viability at 0.05 % strength [2, 4]: 27.8%
viability at 0.05 % strength [2, 5]: 2.7%
